Source: US4663323A, “Tetrazole derivatives, anti-ulcer composition containing the same and method for treating ulcers” (Otsuka Pharmaceutical Co., Ltd., priority 1984, dated 1987)
Read-outs that look alike come from different tables or passages of the source.

Experiments:
Format in all cases: in vivo, male Wistar rats
[1] = tested on: Stress Ulcer; assay: Stress Ulcer; conditions: oral, 1×10^-3 mole in 0.5% CMC, before restraint and water dipping at 23° C. for 7 hours
Procedure: After male Wistar rats weighing about 170 g was fasted for 24 hours, the rats were restrained in a stress cage and dipped in water bath at 23° C. till chest of the animals. After 7 hours, the rats were killed and the stomach was isolated. Into the isolated stomach 10% formalin (8 ml) was poured and settled. The stomach was cut open at the greater curvature, and the length of each ulcer on the membrane was measured. Sum of the length of all ulcers was shown as ulcer index (UI). The test compound was orally administered to the rats before restraint in a stress cage in the form of 0.5% CMC suspension in a concentration of 1×10^-3 mole. As a control, only the solvent (CMC solution) was administered likewise.
The inhibitory ratio (%) of stress ulcer of the test compounds was calculated by the following equation: [formula]
(§1) In the table, the inhibitory ratio (%) was evaluated as follows: […]

[2] = tested on: Indomethacin-Induced Ulcer; assay: Indomethacin-Induced Ulcer; conditions: oral, 3×10^-4 mole in 0.5% CMC, 30 min before indomethacin 20 mg/kg s.c.
Procedure: After male Wistar rats weighing about 160 g was fasted for 24 hours, indomethacin was subcutaneously administered to the rats in a dose of 20 mg/kg in the form of a suspension in a mixture of 0.5% CMC and a small amount of Tween 80 (i.e. polyoxyethylene sorbitan monooleate). After 5 hours, the rats were killed and the stomach was isolated. Into the isolated stomach 10% formalin (8 ml) was poured and settled. The stomach was cut open at the greater curvature, and the length of each ulcer on the membrane was measured, based on which results the inhibitory ratio of the indomethacin-induced ulcer of the test compounds was calculated in the same manner as in Pharmacological Test 2. The test compound was orally administered to the rats in a concentration of 3×10^-4 mole in the form of 0.5% CMC suspension 30 minutes before the administration of indomethacin.
as §1

[3] = tested on: gastric juice secretion; assay: Shay rat pylorus ligation method (gastric juice secretion-inhibiting activity); conditions: sc, 4 h, 100 mg/kg s.c., 30 min before pylorus ligation, measured 4 hours after ligation
Procedure: The pharmacological activities of the compouns (I) were tested by a Shay rat pylorus ligation method (cf. H. Shay et al: Gastroenterol., Vol. 5, page 43, 1945) which is the most popular method for testing of gastric juice secretion-inhibiting activity. The test was carried out by using male Wistar rats, weighing about 170 g and fasting for 24 hours.
Test compounds were administered 30 minutes before the pylorus ligation in a dose of 100 mg/kg in subcutaneous route, and the volume, total acidity and/or pepsin activity of the gastric juice were measured 4 hours after the ligation. As a control, a saline solution was administered instead of the test compound. The inhibitory ratio (%) of the test compounds were calculated when the inhibitory activities of the control were counted as zero (0).
as §1

## COc1ccc(NC(=O)CCCCc2nnnn2-c2ccccc2)cc1 [Compound 49, N-(4-Methoxyphenyl)-5-(1-phenyl-1,2,3,4-tetrazol-5-yl)valeramide]
[1]
  Inhibitory ratio of stress ulcer: + (30 to less than 60%)
[2]
  Inhibitory ratio of indomethacin-induced ulcer: + (30 to less than 60%)

## CCN(C(=O)CCCc1nnnn1-c1ccccc1)C1CCCCC1 [Compound 46, N-Ethyl-N-cyclohexyl-4-(1-phenyl-1,2,3,4-tetrazol-5-yl)butyramide]
[1]
  Inhibitory ratio of stress ulcer: ++ (more than 60%)
[3]; saline control = 0, read-out: Inhibitory ratio, Pepsin activity
  inhibition in vivo at 100 mg/kg: < 10%
[3]; saline control = 0, read-out: Inhibitory ratio, Total acidity
  inhibition in vivo at 100 mg/kg: 10 to 50%
[3]; saline control = 0, read-out: Inhibitory ratio, Volume of gastric juice
  inhibition in vivo at 100 mg/kg: 10 to 50%
[2]
  Inhibitory ratio of indomethacin-induced ulcer: ++ (more than 60%)
